Values quoted from earlier work in patent US20240024490A1, “BIFUNCTIONAL MOLECULES FOR SELECTIVE MODIFICATION OF TARGET SUBSTRATES” (The Broad Institute, Inc., priority 2021, published 2024).
Where two headings read alike, the source gives them in different places.

Key:
[1] = tested on: C26; details: cited from earlier work
[2] = cited from earlier work
[3] = tested on: MCF-7 (breast); details: cited from earlier work
[4] = tested on: BT-474 (breast); details: cited from earlier work
[5] = tested on: KU-19-19 (bladder); details: cited from earlier work
[6] = tested on: LPS-stimulated THP-1 cells; details: read-out: IC50, block of TNFα release; cited from earlier work
[7] = tested on: screening panel of kinases; details: 1000 nM EAI045; cited from earlier work
[8] = tested on: EGFR(L858R/T790M/C797S) tumors; details: in vivo; cited from earlier work
[9] = tested on: MS751 cervical carcinoma; details: read-out: IC50, proliferation; cited from earlier work
[10] = tested on: Z138; details: read-out: IC50, proliferation; cited from earlier work
[11] = tested on: Molt-4 (T cell acute lymphoblastic leukemia) xenografts; details: SCID mice; cited from earlier work
[12] = tested on: KOPN-8; details: cited from earlier work
[13] = tested on: RS4; details: cited from earlier work
[14] = tested on: REH; details: cited from earlier work
[15] = tested on: 697 cells; details: cited from earlier work
[16] = tested on: OP-1; details: cited from earlier work
[17] = tested on: Nalm6; details: cited from earlier work
[18] = tested on: SupB15; details: cited from earlier work
[19] = tested on: SEM cells; details: cited from earlier work
[20] = tested on: LAX2; details: cited from earlier work
[21] = tested on: LAX7R; details: cited from earlier work
[22] = tested on: ICN13; details: cited from earlier work
[23] = tested on: CD138-purified multiple myeloma (MM) cells from patients; details: cited from earlier work
[24] = molecular target: RIPK-1 (Homo sapiens, UniProt Q13546); details: cited from earlier work
[25] = tested on: FGFR2; details: read-out: IC50, FGF1-induced ERK phosphorylation via FGFR2; cited from earlier work
[26] = tested on: p-ERK1/2; details: cited from earlier work
[27] = in vivo; cited from earlier work
[28] = tested on: PTK2; details: prostate cancer cells; read-out: IC50, autophosphorylation of PTK2; cited from earlier work
[29] = cited from earlier work; remark: listed apart in the source
[30] = tested on: Crk-L; details: cited from earlier work
[31] = molecular target: T1, c-Met (Homo sapiens, UniProt P08581); details: cited from earlier work
T1 construct: host or cells: NCI-H441 (as the sentence says)

[32] = tested on: NCI-H441 cells; details: read-out: phosphor-MET IC50; cited from earlier work
[33] = tested on: NCI-H441 cells; details: read-out: viability IC50; cited from earlier work
[34] = tested on: NCI-H441 cells; details: read-out: Invasion IC50; cited from earlier work

T1 sequence (P08581 25-1390): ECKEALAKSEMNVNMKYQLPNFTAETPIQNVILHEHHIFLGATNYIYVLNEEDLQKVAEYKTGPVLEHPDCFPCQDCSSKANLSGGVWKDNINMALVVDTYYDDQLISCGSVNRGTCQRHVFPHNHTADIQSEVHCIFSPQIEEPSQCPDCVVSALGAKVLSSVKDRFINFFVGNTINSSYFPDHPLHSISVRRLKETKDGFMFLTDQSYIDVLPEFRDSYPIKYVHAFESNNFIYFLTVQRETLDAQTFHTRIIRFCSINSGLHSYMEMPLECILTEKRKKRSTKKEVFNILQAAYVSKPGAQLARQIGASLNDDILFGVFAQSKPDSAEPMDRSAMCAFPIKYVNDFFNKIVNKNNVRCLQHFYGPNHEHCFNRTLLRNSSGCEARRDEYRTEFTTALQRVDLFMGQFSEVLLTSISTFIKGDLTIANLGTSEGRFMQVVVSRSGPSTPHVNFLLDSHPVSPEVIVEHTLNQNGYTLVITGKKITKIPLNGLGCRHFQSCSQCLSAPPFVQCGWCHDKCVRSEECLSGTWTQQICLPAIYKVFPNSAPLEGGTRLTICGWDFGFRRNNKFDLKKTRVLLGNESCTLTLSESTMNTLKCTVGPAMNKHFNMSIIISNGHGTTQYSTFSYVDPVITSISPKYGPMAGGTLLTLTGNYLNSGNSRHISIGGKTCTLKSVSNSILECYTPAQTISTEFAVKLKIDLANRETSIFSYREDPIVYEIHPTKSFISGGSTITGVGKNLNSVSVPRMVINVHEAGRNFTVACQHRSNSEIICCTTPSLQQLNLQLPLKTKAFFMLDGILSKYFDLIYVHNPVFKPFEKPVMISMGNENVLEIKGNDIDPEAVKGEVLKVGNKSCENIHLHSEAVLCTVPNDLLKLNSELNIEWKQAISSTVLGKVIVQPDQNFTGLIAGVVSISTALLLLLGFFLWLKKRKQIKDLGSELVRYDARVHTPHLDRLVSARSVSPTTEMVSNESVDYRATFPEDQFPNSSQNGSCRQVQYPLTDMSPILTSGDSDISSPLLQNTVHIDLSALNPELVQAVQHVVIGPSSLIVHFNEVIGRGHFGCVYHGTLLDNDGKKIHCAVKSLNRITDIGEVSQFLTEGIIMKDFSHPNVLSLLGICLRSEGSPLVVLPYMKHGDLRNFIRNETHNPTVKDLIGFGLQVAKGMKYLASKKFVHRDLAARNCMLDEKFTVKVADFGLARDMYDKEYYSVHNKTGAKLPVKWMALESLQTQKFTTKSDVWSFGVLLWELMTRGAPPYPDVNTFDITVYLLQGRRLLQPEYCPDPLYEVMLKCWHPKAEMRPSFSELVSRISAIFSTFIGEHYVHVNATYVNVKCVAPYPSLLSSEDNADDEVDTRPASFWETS
Sequence of RIPK-1 (Q13546 whole entry, species assumed): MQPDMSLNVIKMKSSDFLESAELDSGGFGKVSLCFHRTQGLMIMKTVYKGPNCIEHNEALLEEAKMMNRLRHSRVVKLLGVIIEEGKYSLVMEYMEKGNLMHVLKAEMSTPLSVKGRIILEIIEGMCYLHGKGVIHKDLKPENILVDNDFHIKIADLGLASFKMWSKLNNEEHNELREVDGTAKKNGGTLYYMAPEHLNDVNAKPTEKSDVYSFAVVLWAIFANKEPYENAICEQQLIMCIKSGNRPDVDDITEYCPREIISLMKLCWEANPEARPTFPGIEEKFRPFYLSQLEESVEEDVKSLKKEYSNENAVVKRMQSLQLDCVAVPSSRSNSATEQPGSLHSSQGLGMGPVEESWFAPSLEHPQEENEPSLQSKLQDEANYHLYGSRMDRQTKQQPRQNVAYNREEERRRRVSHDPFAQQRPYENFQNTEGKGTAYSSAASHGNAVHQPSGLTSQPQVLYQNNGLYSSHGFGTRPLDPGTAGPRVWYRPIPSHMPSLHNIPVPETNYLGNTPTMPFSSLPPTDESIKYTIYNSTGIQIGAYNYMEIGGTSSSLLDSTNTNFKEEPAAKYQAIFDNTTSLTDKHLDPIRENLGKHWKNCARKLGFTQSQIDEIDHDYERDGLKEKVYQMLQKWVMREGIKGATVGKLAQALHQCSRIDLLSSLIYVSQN

In the case of O=C(NOCC1CC1)c1ccc(F)c(F)c1Nc1ccc(I)cc1Cl [24 (CI-1040), CI-1040], the IC50 [1] is given as 35 nM and the “Sol (pH 6.5)” value [2] is given as less than 1 μg/mL.
For C=CC(=O)Nc1ccc2[nH]c(=O)n(C3CCN(Cc4ccc(-c5nc6cc[nH]c(=O)c6cc5-c5ccccc5)cc4)CC3)c2c1 [Borussertib], the EC50 [3] is listed as 277 ± 90 nM, the EC50 [4] is listed as 373 ± 54 nM and the EC50 [5] is listed as 7770 ± 641 nM.
In the case of Cc1ccc(-n2nc(C(C)(C)C)cc2NC(=O)Nc2ccc(OCCN3CCOCC3)c3ccccc23)cc1 [Doramapimod], the IC50 [6] is given as 18 nM.
In the case of O=C(Nc1nccs1)C(c1cc(F)ccc1O)N1Cc2ccccc2C1=O (stereo not shown) [EAI045], the “inhibition of any other kinases in screening panels” value [7] is listed as no more than 20% and the “efficacy in xenograft models” value [8] is listed as “effective”.
In the case of Nc1ccc(/C=C/C(=O)NCc2cc3cc(-c4ccc(C(=O)N5CCC(F)(F)CC5)cc4)cc(-c4ccc(F)cc4)c3o2)cn1 [KPT-9274], the IC50 [9] is given as less than 100 nM, the IC50 [10] is given as less than 100 nM and the effect on xenografts [11] is given as “induces shrinkage”. The IC50 [12] was 2.4 nM, the IC50 [13] was 5.6 nM and the IC50 [14] was 14.3 nM. The IC50 [15] was 16.7 nM, the IC50 [16] was 18 nM and the IC50 [17] was 19 nM. The IC50 [18] was 22.6 nM, the IC50 [19] was greater than 10000 nM and the IC50 [20] was 19.4 nM. The IC50 [21] was 32.7 nM and the IC50 [22] was 25.9 nM.
In the case of O=C(NC[C@H](O)CO)c1ccncc1Nc1ccc(I)cc1F [Pimasertib], the IC50 [23] is listed as 2 to 200 nM.
For CCC(C)(C)C(=O)N(O)Cc1ccccc1 [RIPA-56], the pIC50 [24] is given as 7.9.
For COc1c(C)c(C(=O)c2ccc(N)c(C(=O)O)c2)n2ccccc12 [SSR128129E], the IC50 [25] is listed as less than 100 nM.
In the case of CC(=O)Nc1cccc(-n2c(=O)n(C3CC3)c(=O)c3c(Nc4ccc(I)cc4F)n(C)c(=O)c(C)c32)c1 [Trametinib, Trametnib], the “sustained suppression of p-ERK1/2” value [26] is listed as “more than 24 hours” and the “Absorption/distribution of an oral dose” value [27] is listed as 72%.
For CN1c2ccc(NCc3ccc(C(C)(C)C)cc3)cc2-c2c(cnn2C)S1(=O)=O [compound 30], the IC50 [28] is given as 7100 nM.
In the case of N#CCCC(=O)NC1=NN(c2ccc(Cl)c(Cl)c2)CC1 [compound 32], the “In Vitro Clearance” value [29] is listed as less than 0.01 mL/min/mg protein, the “Fold Increase phCRKE Vs Total Crk-L (normalised)” value ([30]; 40 min) is listed as 19x and the “Fold Increase phCRKE Vs Total Crk-L (normalised)” value ([30]; 180 min) is listed as 35x.
For O=C1NC(=O)[C@@H](c2cn3c4c(cccc24)CCC3)[C@@H]1c1c[nH]c2ccccc12 [tivantinib], the pKi [31] is given as 6.4, the “selectivity for c-Met over other kinases tested” value [31] is given as 10-100 time and the IC50 ([31]; read-out: Enzyme IC50) is given as 50 nM. The IC50 [32] was 100 nM, the IC50 [33] was 100 nM and the IC50 [34] was 80 nM.
